Laboratory results: patent EP0193189A1, “Novel compound, its production and insecticidal and acaricidal composition containing it as an active ingredient” (SUMITOMO CHEMICAL COMPANY, LIMITED, priority 1985, dated 1986)
Values after ≈ are worked out from the molar mass of the structure shown. Read-outs that look alike come from different tables or passages of the source.

Columns and labels:
Assay type in all cases: in vivo
[1] = tested on: tobacco cutworms (Spodoptera litura); experiment: Test Example 2: tobacco cutworm larvae on treated artificial feed; settings: for mortality at 150 ppm: Spodoptera litura, 144 h
Source text: The emulsifiable concentrates of the following present compounds obtained according to Formulation example 2 were each diluted with water to obtain respective 667 times dilution aqueous solutions (corresponding to 150 ppm) containing said compounds, respectively. Two ml of thus diluted solutions were impregnated into the artificial feeds (13 g) for tobacco cutworms (Spodoptera litura) and thus prepared feeds were placed in polyethylene cups of 11 cm in diameter, respectively. Ten of the 4th instar larvae were liberated thereon.
Six days after, the dead and alive of the larvae were examined to calculate the mortality (two replications).

[2] = tested on: brown rice planthoppers (Nila^parvata luqens); experiment: Test Example 7: spray on potted rice plants, brown rice planthopper, residual effect; settings: 20 h
Description: The emulsifiable concentrates of the following compounds and control compounds obtained according to Formulation example 2 were each diluted with water one thousand times (corresponding to 100 ppm) and each of thus prepared solutions was sprayed at the rate of 20 ml/2 pots to the rice plant seedlings planted in Wagner pots having a surface area of one ten thousandth are. After air-drying, the treated plants were covered with the iron wire cages, and about 15 adults of brown rice planthoppers (Nila^parvata luqens) were liberated thereto. Further, about 15 adults thereof were also liberated thereto 4 days after the application to examine the residual effects. Twenty hours after each liberation, the dead and alive adults were examined to calculate the mortality.

[3] = tested on: carmine spider mite (Tetranychus cinnabarinus); experiment: Test Example 8: carmine spider mite on potted kidney bean, degree of damage; set-up: key: -: No damage is observed.; +: Slight damage is observed.; ++: The same damage as in the untreated plot is observed; settings: 500 ppm spray 10 ml/pot plus 2 ml soil treatment; after 8 days
Description: The female adults of carmine spider mite (Tetranychus cinnabarinus) were put at a rate of 10 adults/leaf on the leaves of potted kidney bean (at the primordial leaf stage) which had elapsed 7 days after sowing, and placed in a constant-temperature room kept at 25°C. After 6 days, the 200-fold aqueous dilute solutions (corresponding to 500 ppm), prepared from the emulsifiable concentrates of the following present compounds and control compounds prepared according to Formulation example 2, were each sprayed at a rate of 10 ml/pot on a turn table. At the same time, the soil in the pot was treated with 2 ml of each aqueous solution. After 8 days, the degree of damage of the plant by the mite was examined.
Criteria of the effect: • - : No damage is observed. • + : Slight damage is observed. • ++: The same damage as in the untreated plot is observed.

[4] = tested on: common mosquito (Culex pipiens pallens); experiment: Test Example 1: common mosquito larvae in diluted emulsifiable concentrate, mortality and emergence inhibition; settings: for mortality at 3.5 ppm / pest or weed control at 3.5 ppm: Culex pipiens; for mortality at 3.5 ppm: 24 h; for pest or weed control at 3.5 ppm: read-out: Inhibitory ratio of emergence
Description: The emulsifiable concentrates of the following present compounds obtained according to Formulation example 2 were each diluted with water so as to obtain respective aqueous solutions containing 3.5 ppm of said compounds, respectively. One hundred ml of thus diluted aqueous solutions were poured into respective polyethylene cups of 180 ml volume, and 20 of the last instar larvae of common mosquito (Culex pipiens pallens) were liberated thereto. After one day, the dead or alive of the larvae were examined.
Thereafter, the feed was added to respective cups and the number of emerged pupae of the respective cups was counted when all the pupae of no treatment group had emerged to calculate the inhibitory ratios of the emergence.
The mortality and the inhibitory ratio of the emergence are shown according to the following three criteria: • mortality: A; 90% or more, • B; less than 90% to 10%, • C; less than 10%. • inhibitory: A; 90% or more, ratio of • emergence B; less than 90% to 80% • C; less than 80%.

[5] = tested on: resistant strain of green rice leafhopper (Nephotetix cincticeps); experiment: Test Example 3: rice seedling dip test, resistant green rice leafhopper; settings: Nephotettix cincticeps, 24 h, rice seedlings dipped 1 minute; adults of resistant strain; after one day; read-out: LC50 value (ppm)
Description: The emulsifiable concentrates of the following present compounds and control compounds obtained according to Formulation example 2 were each diluted with water to a prescribed concentration, and rice seedlings (about 12 cm in length) were dipped for 1 minute in the resulting aqueous dilute solutions. After air-drying, the seedlings were placed in test tube, and 10 adults of a resistant strain of green rice leafhopper (Nephotetix cincticeps) were liberated in the tube. After one day, the dead and alive of the adults were examined to obtain LC50 (50% lethal concentration)(two replications).

[6] = tested on: houseflies (Musca domestica) of WHO strains; experiment: Test Example 6: housefly filter paper and sucrose bait test; settings: 0.7 ml on filter paper with sucrose bait, adult females, after 48 hours, read-out: LC50 value (ppm)
Description: On the bottom of a polyethylene cup of 5.5 cm- in diameter was placed a piece of filter paper of the same size as the bottom, and 0.7 ml of a test solution, prepared by diluting the emulsifiable concentrates of the following present compounds and control compounds prepared according to Formulation example 2 to a prescribed concentration with water, was added dropwise to the filter paper. Thirty milligrams of sucrose were uniformly placed on the filter paper as bait. Thereafter, 10 adult female houseflies (Musca domestica) of WHO strains were liberated in the cup, which was then covered with a lid. After 48 hours, the dead and alive were examined to obtain LC50 value (50% lethal concentration) (two replications).

[7] = tested on: rice stem borer (Chilo suppressalis); experiment: Test Example 5: rice stem borer larvae on treated artificial feed; settings: 1 ml solution in artificial feed, larvae 10 days old, read-out: LC50 value (ppm)
Source text: The emulsifiable concentrates of the following present compounds and control compounds obtained according to Formulation example 2 were each diluted with water to a prescribed concentration, and one ml each of thus prepared solutions was impregnated into the artificial feeds for rice stem borer (Chilo suppressalis) which had been previously prepared in polyethylene cups of 5.5 cm in diameter, respectively. Ten of the larvae of the 10 days old were liberated thereon. The dead and alive larvae were examined to obtain LC50 value (50% lethal concentration) (two replications).

[8] = 150 ppm solution, 2 ml in 13 g artificial feed, 4th instar larvae, six days after, read-out: Mortality (%)
[9] = 100 ppm spray, 20 ml/2 pots, residual effect, twenty hours after liberation, read-out: Mortality (%) liberated 4 days after application
[10] = 100 ppm spray, 20 ml/2 pots, twenty hours after liberation, read-out: Mortality (%) liberated just after air-drying
[11] = 3.5 ppm, 20 last instar larvae, after one day, read-out: Mortality
[12] = 3.5 ppm, counted when all pupae of no treatment group had emerged

Row | Compound | mortality at 150 ppm [1, 8] [%] | Degree of damage [3] | mortality at 3.5 ppm [4, 11] [%] | pest or weed control at 3.5 ppm [4, 12] [%] | LC50 [5] [µg/mL] | LC50 [6] [µg/mL] | further results
1 | C=CC(C)(CCCc1cccc(Oc2ccccc2)c1)c1ccc(OCC)cc1 (stereo not drawn) [(1), 3-(4-ethoxyphenyl)-3-methyl-6-(3-phenoxyphenyl)-l-hexene] | 100 | - ~ + | > 90 | > 90 |  |  | mortality at 100 ppm [2, 9]: 100%; mortality at 100 ppm [2, 10]: 100%
2 | C=CC(C)(CCCc1ccc(F)c(Oc2ccccc2)c1)c1ccc(OCC)cc1 (stereo not drawn) [(2)] | 100 |  | > 90 | > 90 | 80 (≈ 198 µM) |  | mortality at 100 ppm [2, 9]: 100%; mortality at 100 ppm [2, 10]: 100%
3 | C#CC(C)(CCCc1ccc(F)c(Oc2ccccc2)c1)c1ccc(OC)cc1 (stereo not drawn) [(5)] | 100 |  | > 90 | > 90 | 56 (≈ 144 µM) | 13 (≈ 33.5 µM) | 
4 | C#CC(C)(CCCc1cccc(Oc2ccccc2)c1)c1ccc(OCC=C)cc1 (stereo not drawn) [(7), 3-(4-allyloxyphenyl)-3-methyl-6-(3-phenoxyphenyl)-1-hexyne] |  | - |  | > 90 |  |  | mortality at 150 ppm [1]: 100%; mortality at 100 ppm ([2]; read-out: Mortality (%) liberated 4 days after application): 93%; mortality at 100 ppm ([2]; read-out: Mortality (%) liberated just after air-drying): 100%; mortality at 3.5 ppm [4]: 10 to 90%
5 | C#CC(C)(CCCc1ccc(F)c(Oc2ccccc2)c1)c1ccc(F)cc1 (stereo not drawn) [(9)] | 100 |  | > 90 | > 90 | 49 (≈ 130 µM) |  | LC50 [7]: 4.2 µg/mL (≈ 11.2 µM)
6 | C#CC(C)(CCCc1ccc(F)c(Oc2ccccc2)c1)c1ccc2c(c1)OCO2 (stereo not drawn) [(12)] | 100 |  | > 90 | > 90 | 63 (≈ 157 µM) | 13 (≈ 32.3 µM) | 
7 | C#CC(C)(CCCc1ccc(F)c(Oc2ccccc2)c1)c1ccc(C(F)(F)F)cc1 (stereo not drawn) [(13)] | 100 | - | > 90 | > 90 | 10 (≈ 23.4 µM) |  | 
8 | C#CC(C)(CCCc1cccc(Oc2ccccc2)n1)c1ccc(OCC)cc1 (stereo not drawn) [(18), 3-(4-ethoxyphenyl)-3-methyl-6-(6-phenoxypyridin-2-yl)-l-hexyne] | 100 | - ~ + | > 90 | > 90 |  |  | 
9 | C#CC(C)(CCCc1cccc(Oc2ccccc2)c1)c1ccc(OC)cc1 (stereo not drawn) [(24)] | 100 |  | 10 to 90 | > 90 | 27 (≈ 72.9 µM) |  | 
10 | C#CC(C)(CCCc1cccc(Oc2ccccc2)c1)c1ccc(Cl)cc1 (stereo not drawn) [(25)] | 100 |  | > 90 | > 90 | 61 (≈ 163 µM) |  | 
11 | C#CC(C)(CCCc1ccc(F)c(Oc2ccccc2)c1)c1ccc(OC(F)F)c(Cl)c1 (stereo not drawn) [(27)] |  |  | 10 to 90 | > 90 | 31 (≈ 67.6 µM) | 11 (≈ 24 µM) | 
12 | C#CC(C)(CCCc1ccc(F)c(Cc2ccccc2)c1)c1ccc(OCC)cc1 (stereo not drawn) [(30)] | 100 |  | > 90 | > 90 | 28 (≈ 69.9 µM) |  | 
13 | C#CC(C)(CCCc1ccc(F)c(Oc2ccc(C)cc2)c1)c1ccc(OCC)cc1 (stereo not drawn) [(33)] | 100 |  | > 90 | > 90 | 23 (≈ 55.2 µM) |  | 
14 | C#CC(C)(CCCc1cccc(Oc2ccccc2)c1)c1ccc(F)cc1 (stereo not drawn) [(35)] | 100 |  | > 90 | > 90 | 93 (≈ 259 µM) |  | 
15 | C#CC(C)(CCCc1ccc(F)c(Oc2ccccc2)c1)c1ccc(C(F)(F)F)cc1 (stereo not drawn) [(37)] |  |  |  |  |  | 13 (≈ 30.5 µM) | Mortality (%) ([1]; 150 ppm solution, 2 ml in 13 g artificial feed, 4th instar larvae, six days after, 8640 min): 100%; Mortality ([4]; 3.5 ppm, 20 last instar larvae, after one day, 1440 min): A (90% or more); Inhibitory ratio of emergence [4, 12]: A (90% or more)
16 | C#CC(C)(CCCc1ccc(F)c(Oc2ccc(F)cc2)c1)c1ccc(OCC)cc1 (stereo not drawn) [(38)] | 100 |  | > 90 | > 90 | 1.9 (≈ 4.52 µM) | 14 (≈ 33.3 µM) | 
17 | C#CC(C)(CCCc1ccc(F)c(Oc2ccccc2)c1)c1ccc(CC)cc1 (stereo not drawn) [(39)] | 100 | - ~ + | > 90 | > 90 | 21 (≈ 54.3 µM) | 17 (≈ 44 µM) | 
18 | C#CC(CCCc1ccc(F)c(Oc2ccccc2)c1)c1ccc(OCC)cc1 (stereo not drawn) [(43)] | 100 | - ~ + | > 90 | > 90 | 74 (≈ 190 µM) |  | 
19 | CCC(C)c1ccccc1OC(=O)NC (stereo not drawn) [(C), BPMC, reference compound] |  |  |  |  | 190 (≈ 917 µM) |  | mortality at 100 ppm [2, 9]: 6%; mortality at 100 ppm [2, 10]: 100%
20 | Cc1cc(Cl)ccc1N=CN(C)C [(E), Chlordimeform, reference compound] |  | - ~ + |  |  |  |  | 
